Measured values from paper PMC4730117, “In vitro Biochemical Characterization of All Barley Endosperm Starch Synthases” (Frontiers in Plant Science, 2016).

Columns and labels:
Assay in all cases: glycan microarray on nitrocellulose, anti-His detection
[1] = biological target: T1, HvSSIIa (Hordeum vulgare, UniProt Q8H1Y8); conditions: protein 30 μg/mL in PBS with 5% milk powder; printed oligosaccharide; strong binding
T1 construct: without predicted chloroplast transit peptide, N-terminal His-tag, codon-optimised, E. coli
T1 sequence (Q8H1Y8 61-802): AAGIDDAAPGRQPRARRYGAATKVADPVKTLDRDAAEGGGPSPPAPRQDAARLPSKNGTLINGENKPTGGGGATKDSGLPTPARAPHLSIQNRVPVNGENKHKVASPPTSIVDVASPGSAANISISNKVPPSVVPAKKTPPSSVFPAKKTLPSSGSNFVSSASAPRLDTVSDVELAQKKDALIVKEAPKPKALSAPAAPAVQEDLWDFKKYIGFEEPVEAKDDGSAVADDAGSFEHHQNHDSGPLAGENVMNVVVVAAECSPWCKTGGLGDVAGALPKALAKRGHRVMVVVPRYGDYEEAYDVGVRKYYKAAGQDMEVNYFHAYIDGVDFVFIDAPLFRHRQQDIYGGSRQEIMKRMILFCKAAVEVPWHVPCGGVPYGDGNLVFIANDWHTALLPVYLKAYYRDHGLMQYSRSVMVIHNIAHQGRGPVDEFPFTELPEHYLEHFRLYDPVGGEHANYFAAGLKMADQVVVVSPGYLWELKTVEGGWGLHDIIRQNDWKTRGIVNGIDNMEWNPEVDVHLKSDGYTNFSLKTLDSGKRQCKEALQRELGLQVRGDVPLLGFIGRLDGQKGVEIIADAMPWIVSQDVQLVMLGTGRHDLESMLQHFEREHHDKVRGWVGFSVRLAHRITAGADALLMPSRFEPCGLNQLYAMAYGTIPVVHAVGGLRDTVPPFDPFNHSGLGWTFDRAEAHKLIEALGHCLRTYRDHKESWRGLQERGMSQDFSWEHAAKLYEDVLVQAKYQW

[2] = biological target: T2, CBM53-3 (Hordeum vulgare, UniProt G1FUP7); conditions: protein 30 μg/mL in PBS with 5% milk powder; printed oligosaccharide; strong binding
T2 construct: third CBM53 domain of HvSSIIIa only, C-terminal His-tag, vector pET151, E. coli; borders only in supplement

[3] = biological target: T3, HvSSIV (Hordeum vulgare, UniProt F2CUZ5); conditions: protein 30 μg/mL in PBS with 5% milk powder; printed oligosaccharide; strong binding
T3 construct: without predicted chloroplast transit peptide, C-terminal His-tag, codon-optimised, E. coli
T3 sequence (F2CUZ5 49-914): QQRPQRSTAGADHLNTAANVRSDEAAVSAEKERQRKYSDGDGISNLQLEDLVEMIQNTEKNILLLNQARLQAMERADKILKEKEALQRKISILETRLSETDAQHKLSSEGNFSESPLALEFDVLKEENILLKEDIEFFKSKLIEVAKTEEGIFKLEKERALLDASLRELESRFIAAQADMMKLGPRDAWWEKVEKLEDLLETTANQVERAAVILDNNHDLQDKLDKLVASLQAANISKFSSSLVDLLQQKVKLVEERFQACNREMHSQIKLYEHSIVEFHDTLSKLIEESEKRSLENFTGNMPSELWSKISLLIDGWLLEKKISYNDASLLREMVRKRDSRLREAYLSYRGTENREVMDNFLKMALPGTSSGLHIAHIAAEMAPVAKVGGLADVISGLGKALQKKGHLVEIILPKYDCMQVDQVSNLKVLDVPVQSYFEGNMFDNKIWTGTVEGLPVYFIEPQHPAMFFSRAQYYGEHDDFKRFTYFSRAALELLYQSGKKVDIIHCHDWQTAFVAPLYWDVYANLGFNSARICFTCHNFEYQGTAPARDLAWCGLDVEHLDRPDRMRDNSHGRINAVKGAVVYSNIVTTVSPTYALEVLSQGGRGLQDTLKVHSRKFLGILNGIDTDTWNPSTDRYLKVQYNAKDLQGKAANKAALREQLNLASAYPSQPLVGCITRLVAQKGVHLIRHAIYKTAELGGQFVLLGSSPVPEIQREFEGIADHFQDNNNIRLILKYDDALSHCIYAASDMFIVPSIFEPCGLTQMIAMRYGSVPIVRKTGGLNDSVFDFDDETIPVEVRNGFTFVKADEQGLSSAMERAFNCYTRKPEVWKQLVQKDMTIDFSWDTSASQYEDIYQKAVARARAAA

[4] = biological target: T4, HvGBSSI (Hordeum vulgare, UniProt P09842); conditions: protein 30 μg/mL in PBS with 5% milk powder; printed oligosaccharide; weaker binding
T4 construct: gene WAXY; without predicted chloroplast transit peptide, N-terminal His-tag, codon-optimised, E. coli
T4 sequence (P09842 71-603): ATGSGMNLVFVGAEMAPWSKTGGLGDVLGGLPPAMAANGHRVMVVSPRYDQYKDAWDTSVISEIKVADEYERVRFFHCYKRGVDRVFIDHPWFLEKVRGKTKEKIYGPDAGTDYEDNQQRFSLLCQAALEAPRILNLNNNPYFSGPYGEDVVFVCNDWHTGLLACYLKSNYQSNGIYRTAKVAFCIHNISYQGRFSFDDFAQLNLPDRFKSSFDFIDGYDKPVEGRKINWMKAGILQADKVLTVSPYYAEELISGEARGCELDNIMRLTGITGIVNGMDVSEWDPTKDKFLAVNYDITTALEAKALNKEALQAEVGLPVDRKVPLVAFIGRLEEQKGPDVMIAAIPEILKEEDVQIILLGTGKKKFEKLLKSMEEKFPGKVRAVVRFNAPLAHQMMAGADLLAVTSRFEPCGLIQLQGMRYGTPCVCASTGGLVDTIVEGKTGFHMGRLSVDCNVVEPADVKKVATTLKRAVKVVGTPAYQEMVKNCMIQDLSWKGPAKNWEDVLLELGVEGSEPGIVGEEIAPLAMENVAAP

T2 sequence (G1FUP7 entry or part of it): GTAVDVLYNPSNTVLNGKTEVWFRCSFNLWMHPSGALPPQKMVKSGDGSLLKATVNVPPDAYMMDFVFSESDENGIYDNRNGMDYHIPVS

## O=P(O)(O)O[C@H]1[C@H](O[C@H]2O[C@H](CO)[C@@H](O)[C@H](O)[C@H]2O)[C@@H](CO)OC(O)[C@@H]1O (stereo partly shown) [3-phosphomaltose]
[1]
  glycan microarray on nitrocellulose, anti-His detection: SSIIa, CBM53-3, and SSIV all showed strong binding to 3-phosphomaltose
[2]
  glycan microarray on nitrocellulose, anti-His detection: SSIIa, CBM53-3, and SSIV all showed strong binding to 3-phosphomaltose
[3]
  glycan microarray on nitrocellulose, anti-His detection: SSIIa, CBM53-3, and SSIV all showed strong binding to 3-phosphomaltose
[4]
  glycan microarray on nitrocellulose, anti-His detection: while GBSSI showed weaker binding and binding was non-detectable for SSI
